Converted amounts (≈) assume the structure as drawn.
How the values were obtained:
Escherichia coli [1] = test: Antimicrobial activity against Escherichia coli HS294 by broth dilution assay; assay type: functional
Escherichia coli [2] = test: Antimicrobial activity against multidrug-resistant Escherichia coli by broth dilution assay; assay type: functional
Klebsiella pneumoniae [3] = test: Antimicrobial activity against wild type Klebsiella pneumoniae by broth dilution assay; assay type: functional
Acinetobacter baumannii = test: Antimicrobial activity against wild type Acinetobacter baumannii by broth dilution assay; assay type: functional
[4] = test system: Acinetobacter calcoaceticus; test: Antimicrobial activity against wild type Acinetobacter calcoaceticus by broth dilution assay; assay type: functional
[5] = test system: Stenotrophomonas maltophilia; test: Antimicrobial activity against wild type Stenotrophomonas maltophilia by broth dilution assay; assay type: functional
Enterobacter cloacae = test: Antimicrobial activity against ESBL producing Enterobacter cloacae by broth dilution assay; assay type: functional
Escherichia coli [6] = test: Antimicrobial activity against ESBL producing Escherichia coli by broth dilution assay; assay type: functional
Pseudomonas aeruginosa [7] = test: Antimicrobial activity against multidrug-resistant Pseudomonas aeruginosa by broth dilution assay; assay type: functional
Escherichia coli [8] = test: Antimicrobial activity against Escherichia coli ATCC 25922 by broth dilution assay; assay type: functional
Serratia marcescens = test: Antimicrobial activity against wild type Serratia marcescens by broth dilution assay; assay type: functional
Klebsiella pneumoniae [9] = test: Antimicrobial activity against ESBL producing Klebsiella pneumoniae by broth dilution assay; assay type: functional
Klebsiella aerogenes = test: Antimicrobial activity against wild type Enterobacter aerogenes by broth dilution assay; assay type: functional
Escherichia coli [10] = test: Antimicrobial activity against wild type Escherichia coli by broth dilution assay; assay type: functional
Pseudomonas aeruginosa [11] = test: Antimicrobial activity against wild type Pseudomonas aeruginosa by broth dilution assay; assay type: functional
Proteus vulgaris = test: Antimicrobial activity against wild type Proteus vulgaris by broth dilution assay; assay type: functional
[12] = target: T1, UDP-3-O-acyl-N-acetylglucosamine deacetylase (Escherichia coli K-12, UniProt P0A725); test: Inhibition of Escherichia coli LpxC
T1 sequence (P0A725 whole entry): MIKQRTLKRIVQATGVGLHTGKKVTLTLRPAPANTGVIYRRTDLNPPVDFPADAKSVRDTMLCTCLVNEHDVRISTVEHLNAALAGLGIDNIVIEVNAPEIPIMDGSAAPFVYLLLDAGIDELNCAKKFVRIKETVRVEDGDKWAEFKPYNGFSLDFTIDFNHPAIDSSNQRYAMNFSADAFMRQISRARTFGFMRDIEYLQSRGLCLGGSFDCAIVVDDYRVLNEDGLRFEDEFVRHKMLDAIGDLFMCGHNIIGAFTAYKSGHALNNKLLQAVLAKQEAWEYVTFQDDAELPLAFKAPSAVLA

| Compound | MIC (Escherichia coli [1]) | MIC (Escherichia coli [8]) | IC50 [12] | other results |
| --- | --- | --- | --- | --- |
| C[C@@H](O)[C@@H](NC(=O)c1ccc(C#Cc2ccccc2)cc1)C(=O)NO | 0.02 µg/mL (≈ 0.0591 µM) | 0.08 µg/mL (≈ 0.236 µM) |  | MIC (Escherichia coli [2]): 0.63 µg/mL (≈ 1.86 µM); MIC (Klebsiella pneumoniae [3]): 1.25 µg/mL (≈ 3.69 µM); MIC (Acinetobacter baumannii): > 20 µg/mL; MIC [4]: 1.25 µg/mL (≈ 3.69 µM); MIC [5]: 5 µg/mL (≈ 14.8 µM); MIC (Enterobacter cloacae): 0.31 µg/mL (≈ 0.916 µM); MIC (Escherichia coli [6]): 0.313 µg/mL (≈ 0.925 µM); MIC (Pseudomonas aeruginosa [7]): 0.63 µg/mL (≈ 1.86 µM); MIC (Serratia marcescens): 1.25 µg/mL (≈ 3.69 µM); MIC (Klebsiella pneumoniae [9]): 0.63 µg/mL (≈ 1.86 µM); MIC (Klebsiella aerogenes): 2.5 µg/mL (≈ 7.39 µM); MIC (Escherichia coli [10]): 0.16 µg/mL (≈ 0.473 µM); MIC (Pseudomonas aeruginosa [11]): 10 µg/mL (≈ 29.6 µM); MIC (Proteus vulgaris): 1.25 µg/mL (≈ 3.69 µM) |
| C[C@@H](O)[C@@H](NC(=O)N1CCN(c2ccc(C#Cc3ccccc3)cc2)CC1)C(=O)NO | 0.2 µg/mL (≈ 0.473 µM) | 1.56 µg/mL (≈ 3.69 µM) | 2.4 nM |  |
| C[C@@H](O)[C@@H](NC(=O)NCCc1ccc(C#Cc2ccccc2)cc1)C(=O)NO | 50 µg/mL (≈ 131 µM) | > 100 µg/mL | 1270 nM |  |
| C[C@@H](O)[C@H](C(=O)NO)N1Cc2cc(-c3ccc(C#Cc4ccccc4)cc3)ccc2C1=O |  |  | 29 nM |  |
| C[C@@H](O)[C@H](C(=O)NO)N1Cc2cc(C#Cc3ccc(-c4ccccc4)cc3)ccc2C1=O |  |  | 13 nM |  |
| C[C@@H](O)[C@@H](NC(=O)N1CCN(c2ccc(C#Cc3ccc(N4CCNCC4)cc3)cc2)CC1)C(=O)NO | 0.4 µg/mL (≈ 0.79 µM) | 6.25 µg/mL (≈ 12.3 µM) | 23.3 nM |  |
| C[C@@H](O)[C@@H](NC(=O)N1CCN(c2ccc(C#Cc3ccc(CO)cc3)cc2)CC1)C(=O)NO | 0.4 µg/mL (≈ 0.884 µM) | 12.5 µg/mL (≈ 27.6 µM) | 12 nM |  |
| O=C(O)c1cn(C2CC2)c2cc(N3CCNCC3)c(F)cc2c1=O [CIPROFLOXACIN] |  |  |  | MIC (Escherichia coli [2]): > 32 µg/mL; MIC (Klebsiella pneumoniae [3]): 1 µg/mL (≈ 3.02 µM); MIC [5]: 0.016 µg/mL (≈ 0.0483 µM); MIC (Pseudomonas aeruginosa [7]): > 8 µg/mL; MIC (Pseudomonas aeruginosa [11]): 0.012 µg/mL (≈ 0.0362 µM) |
| C[C@@H](O)[C@H](C(=O)NO)n1[nH]c2cc(C#Cc3ccccc3)ccc2c1=O |  |  | 200 nM |  |
| C[C@@H](O)[C@@H](NC(=O)N1CCN(c2ccc(-c3cncs3)cc2)CC1)C(=O)NO | 3.13 µg/mL (≈ 7.72 µM) | 100 µg/mL (≈ 247 µM) | 12 nM |  |
| C[C@@H](O)[C@@H](NC(=O)N1CCN(c2ccc(-c3ccccc3)cc2)CC1)C(=O)NO | 0.8 µg/mL (≈ 2.01 µM) | 3.13 µg/mL (≈ 7.86 µM) | 5.6 nM |  |
| C[C@@H](O)[C@@H](NC(=O)N1CCN(c2ccc(C#Cc3ccc(N4CCOCC4)cc3)cc2)CC1)C(=O)NO | 0.1 µg/mL (≈ 0.197 µM) | 25 µg/mL (≈ 49.3 µM) | 3 nM |  |
| C[C@@H](N)[C@@H](NC(=O)N1CCN(c2ccc(C#Cc3ccccc3)cc2)CC1)C(=O)NO | 0.4 µg/mL (≈ 0.949 µM) | 1.56 µg/mL (≈ 3.7 µM) | 0.6 nM | MIC (Escherichia coli [2]): 3.13 µg/mL (≈ 7.43 µM); MIC (Klebsiella pneumoniae [3]): 25 µg/mL (≈ 59.3 µM); MIC (Acinetobacter baumannii): 25 µg/mL (≈ 59.3 µM); MIC [4]: 25 µg/mL (≈ 59.3 µM); MIC [5]: > 50 µg/mL; MIC (Enterobacter cloacae): 3.13 µg/mL (≈ 7.43 µM); MIC (Escherichia coli [6]): 1.56 µg/mL (≈ 3.7 µM); MIC (Pseudomonas aeruginosa [7]): 3.13 µg/mL (≈ 7.43 µM); MIC (Serratia marcescens): 12.5 µg/mL (≈ 29.7 µM); MIC (Klebsiella pneumoniae [9]): 12.5 µg/mL (≈ 29.7 µM); MIC (Klebsiella aerogenes): 25 µg/mL (≈ 59.3 µM); MIC (Escherichia coli [10]): 1.56 µg/mL (≈ 3.7 µM); MIC (Pseudomonas aeruginosa [11]): 12.5 µg/mL (≈ 29.7 µM); MIC (Proteus vulgaris): 6.25 µg/mL (≈ 14.8 µM) |
| C[C@@H](O)[C@@H](NC(=O)N1CCN(c2ccc(C#Cc3ccc(N)cc3)cc2)CC1)C(=O)NO | 1.56 µg/mL (≈ 3.57 µM) | 3.13 µg/mL (≈ 7.15 µM) | 26 nM |  |
| C[C@@H](O)[C@H](C(=O)NO)N1Cc2cc(C#Cc3ccccc3)ccc2C1=O |  |  | 130 nM |  |
| C[C@@H](O)[C@@H](NC(=O)N1CCN(c2ccc(C#Cc3ccc(C(F)(F)F)cc3)cc2)CC1)C(=O)NO | 1.56 µg/mL (≈ 3.18 µM) | 12.5 µg/mL (≈ 25.5 µM) | 10.4 nM |  |
| C[C@@H](O)[C@@H](NC(=O)N1CCN(c2ccc(C#Cc3cnccn3)cc2)CC1)C(=O)NO | 6.25 µg/mL (≈ 14.7 µM) | > 100 µg/mL | 136 nM |  |
| C[C@@H](O)[C@@H](NC(=O)N1CCN(c2ccc(C#Cc3ccc(CC#N)cc3)cc2)CC1)C(=O)NO | 0.8 µg/mL (≈ 1.73 µM) | 6.25 µg/mL (≈ 13.5 µM) | 11 nM |  |
| C[C@@H](O)[C@@H](NC(=O)N1CCN(c2ccc(C#Cc3ccc(F)cc3)cc2)CC1)C(=O)NO | 0.8 µg/mL (≈ 1.82 µM) | 3.13 µg/mL (≈ 7.11 µM) | 7 nM |  |
| C[C@@H](O)[C@@H](NC(=O)N1CCN(c2ccc(C#Cc3ccc(O)cc3)cc2)CC1)C(=O)NO | 0.1 µg/mL (≈ 0.228 µM) | 1.56 µg/mL (≈ 3.56 µM) | 4 nM |  |
| CCCCCCCCCCCCCC(=O)O[C@@H]1[C@@H](CC(=O)NO)CO[C@H](CO)[C@H]1O |  |  |  | Ki [12]: 650 nM |
| CC1(C)S[C@@H]2[C@H](NC(=O)[C@H](N)c3ccccc3)C(=O)N2[C@H]1C(=O)O [AMPICILLIN] |  |  |  | MIC (Escherichia coli [2]): > 8 µg/mL; MIC (Klebsiella pneumoniae [3]): > 32 µg/mL; MIC [5]: > 32 µg/mL; MIC (Enterobacter cloacae): > 32 µg/mL; MIC (Escherichia coli [6]): > 32 µg/mL; MIC (Pseudomonas aeruginosa [7]): > 256 µg/mL; MIC (Klebsiella pneumoniae [9]): > 32 µg/mL; MIC (Escherichia coli [10]): 4 µg/mL (≈ 11.4 µM); MIC (Pseudomonas aeruginosa [11]): 4 µg/mL (≈ 11.4 µM) |
| C[C@@H](O)[C@@H](NC(=O)N1CCC(c2ccc(C#Cc3ccccc3)cc2)C1)C(=O)NO (stereo partly specified) | 12.5 µg/mL (≈ 30.7 µM) | 100 µg/mL (≈ 245 µM) | 36 nM |  |
| C[C@@H](O)[C@@H](NC(=O)N1CCC(c2ccccc2)CC1)C(=O)NO | 12.5 µg/mL (≈ 38.9 µM) |  | 3940 nM |  |

— ChEMBL document CHEMBL1667853, “Design and synthesis of potent Gram-negative specific LpxC inhibitors” (Bioorg Med Chem Lett, 2011)
